Experimental data published in the supplement of paper PMC10307832.

Key:
Assay in all cases: relative viability (nuclei count vs DMSO), 5 days (fraction); higher = more cells survive
[1] = compound: COC1=CC=C(C=C1)CN2C=CC3=C2C=C(C=C3)C(=O)NO + CS(=O)(=O)N1CCN(Cc2cc3nc(-c4cccc5[nH]ncc45)nc(N4CCOCC4)c3s2)CC1 [Pictilisib] (partner 1 µM)
Outline: (§1)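 Nuclei were stained with Hoechst during a one-step fixation (final 0.05% Triton X-100, 1% formaldehyde, 1 ug/ml Hoechst) carried out 5 days after dosing, then counted on 4× images. The cells, lung cancer lines in 1536-well plates, had been dosed by pin tool the day after seeding with one drug alone or a fixed anchor-drug dose plus five library-drug doses (not always all listed) in √10 steps. Relative viability is the nuclei count in treated wells divided by that in vehicle wells, and each value is the median of duplicate plates.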

Veliparib + OSI-027 = compound: C[C@]1(c2nc3c(C(N)=O)cccc3[nH]2)CCCN1 [Veliparib] + COc1cccc2cc(-c3nc([C@H]4CC[C@H](C(=O)O)CC4)n4ncnc(N)c34)[nH]c12 [OSI-027] (partner 0.5 µM)
Outline: as §1

Veliparib + AZD7762 = compound: C[C@]1(c2nc3c(C(N)=O)cccc3[nH]2)CCCN1 [Veliparib] + NC(=O)Nc1cc(-c2cccc(F)c2)sc1C(=O)N[C@H]1CCCNC1 [AZD7762] (partner 0.2 µM)
Outline: as §1

[2] = compound: COC1=CC=C(C=C1)CN2C=CC3=C2C=C(C=C3)C(=O)NO + CCNC(=O)c1noc(-c2cc(C(C)C)c(O)cc2O)c1-c1ccc(CN2CCOCC2)cc1 [Luminespib] (partner 0.01 µM)
Outline: as §1

| Cell Line | relative viability ([1]; first compound 0.253 µM) | relative viability ([1]; first compound 0.8 µM) | relative viability ([1]; first compound 2.53 µM) | relative viability ([1]; first compound 8 µM) | relative viability (Veliparib + OSI-027; first compound 0.02 µM) | relative viability (Veliparib + OSI-027; first compound 0.06325 µM) | relative viability (Veliparib + OSI-027; first compound 0.2 µM) | relative viability (Veliparib + OSI-027; first compound 0.6325 µM) | relative viability (Veliparib + OSI-027; first compound 2 µM) | relative viability (Veliparib + AZD7762; first compound 0.02 µM) | relative viability (Veliparib + AZD7762; first compound 0.06325 µM) | relative viability (Veliparib + AZD7762; first compound 0.2 µM) | relative viability (Veliparib + AZD7762; first compound 0.6325 µM) | relative viability (Veliparib + AZD7762; first compound 2 µM) | relative viability ([1]; first compound 0.08 µM) | relative viability ([2]; first compound 0.253 µM) | relative viability ([2]; first compound 0.8 µM) | relative viability ([2]; first compound 2.53 µM) | relative viability ([2]; first compound 8 µM) | relative viability ([2]; first compound 0.08 µM) |
| --- | --- | --- | --- | --- | --- | --- | --- | --- | --- | --- | --- | --- | --- | --- | --- | --- | --- | --- | --- | --- |
| HCC-78 | 0.192 | 0.199 | 0.213 | 0.216 | 0.4 | 0.364 | 0.339 | 0.402 | 0.423 | 0.599 | 0.434 | 0.664 | 0.643 | 0.591 | – | – | – | – | – | – |
| HCC-366 | 0.165 | 0.137 | 0.136 | 0.15 | 0.961 | 0.752 | 0.89 | 0.838 | 0.915 | 0.233 | 0.253 | 0.174 | 0.164 | 0.231 | 0.139 | – | – | – | – | – |
| IA-LM | 0.388 | 0.373 | 0.371 | 0.23 | – | – | – | – | – | – | – | – | – | – | 0.296 | – | – | – | – | – |
| NCI-H520 | 0.266 | 0.314 | 0.276 | 0.271 | 0.224 | 0.309 | 0.276 | 0.231 | 0.234 | – | – | – | – | – | 0.265 | 0.207 | 0.193 | 0.227 | 0.226 | – |
| NCI-H522 | – | – | – | – | 0.679 | 0.731 | 0.888 | 0.689 | 0.732 | 0.805 | 0.896 | 0.846 | 0.87 | 0.873 | – | 1.13 | 1.18 | 1.06 | 1.22 | 1.01 |
| NCI-H661 | 0.358 | 0.35 | 0.375 | 0.318 | 0.751 | 0.704 | 0.743 | 0.669 | 0.657 | – | – | – | – | – | – | 0.873 | 0.883 | 0.88 | 0.765 | – |
| NCI-H1299 | 1.03 | 0.77 | 0.658 | 0.593 | – | – | – | – | – | – | – | – | – | – | 0.834 | – | – | – | – | – |
| NCI-H1563 | 0.656 | 0.645 | 0.706 | 0.618 | 0.672 | 0.741 | 0.799 | 0.751 | 0.77 | – | – | – | – | – | 0.547 | 0.506 | 0.517 | 0.551 | 0.488 | 0.507 |
| NCI-H1623 | – | – | – | – | 0.384 | 0.362 | 0.425 | 0.42 | 0.431 | – | – | – | – | – | – | 0.761 | 0.576 | 0.471 | 0.392 | 0.578 |
| NCI-H1648 | – | – | – | – | 0.255 | 0.262 | 0.249 | 0.278 | 0.251 | 0.762 | – | – | 0.711 | 0.685 | – | – | – | – | – | – |
| NCI-H1650 | 0.595 | 0.567 | 0.541 | 0.32 | – | 0.501 | 0.691 | 0.502 | 0.561 | – | – | – | – | – | 0.173 | 0.189 | 0.194 | 0.213 | 0.203 | 0.194 |
| NCI-H1703 | 0.259 | 0.221 | 0.256 | 0.147 | – | – | – | – | – | 0.0963 | 0.11 | 0.112 | 0.138 | 0.13 | – | – | – | – | – | – |
| NCI-H2009 | 0.836 | 0.91 | 0.788 | 0.604 | 0.63 | 0.645 | 0.672 | 0.586 | 0.672 | – | – | – | – | – | 0.601 | 1.04 | 1 | 1.02 | 0.933 | 1.04 |
| NCI-H2023 | 0.239 | 0.227 | 0.236 | 0.202 | 0.339 | 0.398 | 0.442 | 0.347 | 0.432 | – | – | – | – | – | 0.105 | 0.885 | 0.724 | 0.586 | 0.553 | 0.67 |
| NCI-H2228 | 0.326 | 0.536 | 0.46 | 0.251 | 0.529 | 0.569 | 0.56 | 0.486 | 0.551 | – | – | – | – | – | 0.375 | 0.193 | 0.179 | 0.142 | 0.13 | – |
| NCI-H2342 | – | – | – | – | 0.586 | 0.558 | 0.649 | 0.687 | 0.572 | 0.392 | 0.543 | 0.417 | 0.471 | 0.405 | – | 0.629 | 0.762 | 0.786 | 0.738 | 0.697 |
| SK-LU-1 | 0.586 | 0.613 | 0.517 | 0.505 | 0.388 | 0.316 | 0.381 | 0.307 | 0.343 | – | – | – | – | – | 0.468 | 0.197 | 0.183 | 0.191 | 0.185 | 0.184 |
| SK-MES-1 | 0.384 | 0.368 | 0.36 | 0.332 | 0.618 | 0.527 | 0.686 | 0.588 | 0.638 | – | – | – | – | – | 0.343 | 0.833 | 0.609 | 0.795 | 0.504 | 0.795 |
| SW 900 | – | – | – | – | – | – | 0.675 | 0.582 | 0.413 | – | 0.575 | 0.526 | 0.59 | 0.591 | – | 0.234 | 0.206 | 0.217 | 0.165 | 0.174 |
| UMC-11 | 0.82 | 0.864 | 0.756 | 0.748 | 0.508 | 0.471 | 0.472 | 0.469 | 0.415 | – | – | – | – | – | 0.28 | 1.13 | 0.98 | 0.904 | 1.01 | – |
